Broadly, the IC50 is the midpoint of a concentration-inhibition curve.

Consider 1 molecule from patent US5679680A, “α-substituted hydrazides having calpain inhibitory activity” (Warner-Lambert Company, priority 1995, dated 1997).

One assay addresses T1, Thermolysin (Bacillus thermoproteolyticus, UniProt P00800).
T1 construct: purchased Sigma P1512; host or cells: Bacillus thermoproteolyticus
The assay can be described thus: Thermolysin assay, casein substrate. It counts as biochemical. Here is the method: (§1) Selectivity of α-substituted Hydrazides: Calpain I and II were assayed as described in Example 1. One to 2 ng papain (papaya latex, Sigma, P3125), 1.25 μg trypsin (bovine pancreas, Sigma, T8003), 5 μg thermolysin (Bacillus thermoproteolyticus, Sigma, P1512) were assayed using 0.5 mg/mL casein as substrate in the microplate format (250 μL reaction volume), essentially a described by Buroker-Kilgore, M. and Wang K K W, Anal Biochem 1993;208: 387-392. Cathepsin B (0.002 unit, bovine spleen) was assayed with 50 mM MES (pH 5.5), 100 μM carbobenzoxy-Arg-Arg-4-methoxy-beta-naphthlamide (Cbz-Arg-Arg-MNA), inhibitor, and 2 mM DTT in 200 μL for 60 minutes at room temperature. Fifty-microliter aliquots were transferred to a fluorescence-compatible plate and then read with a Perkin-Elmer fluorometer LS-50B (excitation 340 nm and emission 425 nm). Calcineurin (bovine brain, Sigma) (5 μg, 0.8 unit) was assayed with 10 mM p-nitrophenyl phosphate in 1 mM DTT, 1 mM CaCl2, 1 mM MnCl2, […] calmodulin (CaM, if added), and 50 mM Tris-HCl (pH 7.4) at 25° C. for 60 minutes or more. Production of p-nitrophenol was monitored at 405 nm. Inhibition of these proteases are presented as IC50.

In a further assay the target is T2, Trypsin (Bos taurus, UniProt P00760).
T2 construct: purchased Sigma T8003; host or cells: bovine pancreas
T2 sequence (P00760 24-246): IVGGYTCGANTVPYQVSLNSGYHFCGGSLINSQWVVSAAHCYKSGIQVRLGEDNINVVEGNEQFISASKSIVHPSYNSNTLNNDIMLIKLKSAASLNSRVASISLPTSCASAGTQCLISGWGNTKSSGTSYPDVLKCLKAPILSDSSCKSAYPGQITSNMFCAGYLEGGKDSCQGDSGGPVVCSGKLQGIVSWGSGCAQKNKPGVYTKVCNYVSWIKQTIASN
The assay can be described thus: Trypsin assay, casein substrate. As to conditions: 0.5 mg/mL casein. The format is biochemical, bovine. Here is the method: as §1

T1 sequence (P00800 233-548): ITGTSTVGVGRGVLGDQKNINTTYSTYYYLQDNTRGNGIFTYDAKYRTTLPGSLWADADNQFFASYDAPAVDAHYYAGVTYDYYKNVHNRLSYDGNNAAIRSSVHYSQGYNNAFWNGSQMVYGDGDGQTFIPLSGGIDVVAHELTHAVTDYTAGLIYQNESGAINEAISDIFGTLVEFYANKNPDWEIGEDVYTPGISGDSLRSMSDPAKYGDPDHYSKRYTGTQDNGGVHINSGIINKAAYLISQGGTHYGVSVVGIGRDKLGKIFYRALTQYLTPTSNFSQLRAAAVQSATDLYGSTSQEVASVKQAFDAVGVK

With `O=C(CCl)NN=c1[nH]c2ccccc2n(-c2ccccc2)c1=O` [Example 5, 2-Chloro-acetic acid (3-oxo-4-phenyl-3,4-dihydro-1H-quinoxalin-2-ylidene)-hydrazide], the half-inhibitory concentration (IC50) was over 500 µM on Thermolysin and over 200 µM at Trypsin.
